Consider 18 compounds from patent publication US9018187B2, “Cationic lipids and methods for the delivery of therapeutic agents” (Protiva Biotherapeutics, Inc., priority 2009, dated 2015).

Data set [1] has as its system liver ApoB mRNA. Put plainly: Liver ApoB mRNA knockdown by 1:57 SNALP with APOB siRNA in mice. Type of data set: in vivo, mouse. To be noted: for ApoB knockdown: similar study with 1:57 SNALP containing C2-TLinDMA (Example 16); for ApoB silencing activity (liver ApoB mRNA): 6:1 L:D, IV 0.1 mg/kg. The procedure:
Each SNALP formulation was administered by intravenous (IV) injection at 0.1 mg/kg into female Balb/c mice (n=3 per group). Plasma total cholesterol and/or liver ApoB mRNA levels were evaluated at 48 hours after SNALP administration. For dose response studies, SNALP formulations were administered by IV injection at 0.01 mg/kg, 0.03 mg/kg, or 0.1 mg/kg into female Balb/c mice (n=3 per group). Liver ApoB mRNA levels were evaluated at 48 hours after SNALP administration.
1:57 SNALP formulations containing encapsulated APOB siRNA at a 6:1 lipid:drug (L:D) ratio were prepared with the following cationic lipids: (1) DLinDMA; (2) Linoleyl/Linolenyl DMA (“Lin/LenDMA”); (3) DPanDMA; (4) TLinDMA; (5) Linoleyl/C6:0 DMA (“Lin/6:0”); (6) C2-DPanDMA; (7) DLin-C2K-Pip (30H); and (8) DHep-C2K-DMA.
Each SNALP formulation was administered by intravenous (IV) injection at 0.1 mg/kg into female Balb/c mice (n=3 per group). Livers were colleted at 48 hours after SNALP administration and liver ApoB mRNA levels were evaluated by performing an ApoB/GAPDH QG assay. Table 2 provides a characterization of the SNALP formulations used in this in vivo study.
In another study, 1:57 SNALP formulations containing encapsulated APOB siRNA at a 6:1 L:D ratio were prepared with the following cationic lipids: (1) DLinDMA; (2) C2-DPanDMA; (3) DPan-C2K-DMA; (4) DPan-C3K-DMA; and (5) DPan-C1K6-DMA.
Each SNALP formulation was administered by intravenous (IV) injection at 0.1 mg/kg into female Balb/c mice (n=3 per group). Livers were colleted at 48 hours after SNALP administration and liver ApoB mRNA levels were evaluated by performing an ApoB/GAPDH QG assay. Table 3 provides a characterization of the SNALP formulations used in this in vivo study.
For dose response studies, SNALP formulations were administered by IV injection at 0.01 mg/kg, 0.033 mg/kg, or 0.1 mg/kg into female Balb/c mice (n=3 per group). Liver ApoB mRNA levels were evaluated at 48 hours after SNALP administration by a branched DNA assay (QuantiGene assay) to assess ApoB mRNA relative to the housekeeping gene GAPDH.

Data set [2] is described as follows: TNS assay, apparent pKa of cationic lipid in 1:57 SNALP. To be noted: 1:57 SNALP formulation containing encapsulated APOB siRNA.
Experimental: 1:57 SNALP formulations containing encapsulated APOB siRNA were prepared as described in Section VI above with the following cationic lipids: (1) DLinDMA; (2) DLenDMA; (3) γ-DLenDMA (“g-DLenDMA”); (4) C2-DLinDAP; (5) DLinPip (4-OH); (6) DLinPip; (7) DLinPip (3-OH); (8) DLinDEA; (9) DDocDMA; (10) DAraDMA; (11) TLinDMA; (12) DLin-C2K Pip (30H); (13) DHep-C2K-DMA; (14) DPanDMA; (15) C2-DPanDMA (“DPan-C2-DMA”); (16) DPan-C2K-DMA; (17) DPan-C3K-DMA; (18) DPan-K6-DMA (“DPan-C1K6-DMA”); and (19) C2-TLinDMA.
The apparent pKa of the cationic lipids present in these SNALP formulations was determined using a 2-(p-toluidinyl)-naphthalene-6-sodium sulfonate (TNS) assay. TNS is a negatively-charged indicator of membrane potential that is electrostatically attracted to positively charged membranes (see, Bailey and Cullis, Biochemistry, 33 12573-80 (1994)). Subsequent adsorption to the lipid membrane results in the immediate environment of the TNS becoming more lipophilic, removing the water molecules that otherwise quench TNS fluorescence. As a result, TNS measures the surface potential of the particle, wherein the more positive the surface potential, the greater the level of fluorescence. The surface pKa values of each SNALP formulation were determined by varying the local pH in the presence of TNS. By plotting fluorescence versus pH, the pKa of the cationic lipid can be estimated in the particle as the pH where fluorescence equals 50% of total fluorescence.
Data set [3] in a line: Tolerability of 1:57 SNALP, liver enzyme levels. It counts as in vivo, mouse. The settings on record: FIG. 7, single IV bolus 10, 15 or 20 mg/kg, Balb/c mice, 48 hours post-injection, vs PBS control. The procedure: The tolerability of the 1:57 γ-DLenDMA SNALP formulation was evaluated with a single IV bolus injection of SNALP at either 10 mg/kg, 15 mg/kg, or 20 mg/kg in Balb/c mice (n=3 per group). Liver enzyme levels were measured at 48 hours post-injection.

In data set [4] the test system is ApoB mRNA in ApoE−/− primary hepatocytes. Put plainly: ApoB silencing in ApoE−/− primary hepatocytes after serum pre-incubation of SNALP. The settings on record: FIGS. 12-14; 1:57 SNALP pre-incubated with C57 or ApoE−/− serum, 40-0.625 nM siRNA on hepatocytes, 24 hr. Type of data set: cell-based, mouse. The procedure:
ApoE−/− primary hepatocytes were isolated and plated at 2.5×10^4 cells/well. Each SNALP formulation was pre-incubated with 50% C57 (ApoE-containing) serum or ApoE−/− serum at siRNA concentrations of 4000-62.5 nM for 1 hr at 37° C. Samples were then diluted to 40-0.625 nM on the hepatocytes for 24 hr. After 24 hr, cells were lysed and ApoB and GAPD mRNA levels were measured via bDNA (QG) assay.

Data set [5] in a line: Characterization of SNALP formulations (size, polydispersity, encapsulation). It counts as physicochemical. The settings on record: Table 5; for Initial Encaps. (%): 7:54 SNALP (PEG750-C-DMA 6.76 | cationic 54.06 | Chol 32.43 | DPPC 6.75 mol %) with PLK-1 siRNA; for Finished Product Encaps. (%) / Finished Product Poly / Finished Product Z-Avg (nm): 7:54 SNALP with PLK-1 siRNA. The procedure: In the context of nucleic acids, full encapsulation may be determined by performing a membrane-impermeable fluorescent dye exclusion assay, which uses a dye that has enhanced fluorescence when associated with nucleic acid. Specific dyes such as OliGreen® and RiboGreen® (Invitrogen Corp.; Carlsbad, Calif.) are available for the quantitative determination of plasmid DNA, single-stranded deoxyribonucleotides, and/or single- or double-stranded ribonucleotides. Encapsulation is determined by adding the dye to a liposomal formulation, measuring the resulting fluorescence, and comparing it to the fluorescence observed upon addition of a small amount of nonionic detergent. Detergent-mediated disruption of the liposomal bilayer releases the encapsulated nucleic acid, allowing it to interact with the membrane-impermeable dye. Nucleic acid encapsulation may be calculated as E=(Io−I)Io, where I and Io refer to the fluorescence intensities before and after the addition of detergent (see, Wheeler et al., Gene Ther., 6:271-281 (1999)). […]
Each SNALP formulation was administered by intravenous (IV) injection at 3 mg/kg into Scid mice containing Hep3B tumors (n=4 per group). Tumor tissue was colleted at 24 hours after SNALP administration and tumor PLK-1 mRNA levels were evaluated by performing a PLK-1/GAPDH QG assay. Table 5 provides a characterization of the SNALP formulations used in this in vivo study.

[6] abbreviates: Example 16, FIG. 8, 1:57 SNALP, female Balb/c mice, 48 hours, ApoB/GAPDH QG assay.
Setting [7] is: Example 16 second study, FIG. 9, 1:57 SNALP, female Balb/c mice, 48 hours.

In data set [1], `CCCCC/C=C\C/C=C\CCCCCCCCOCC(COCC(CCN(C)C)OCCCCCCCC/C=C\C/C=C\CCCCC)OCCCCCCCC/C=C\C/C=C\CCCCC` (stereo not drawn) [Compound C2-TLinDMA] came in with an ApoB knockdown of 49%. Besides, the pKa in data set [2] is around 5.85.

As to `CCCCC/C=C\C/C=C\C/C=C\C/C=C\CCCCOCC(CN(C)C)OCCCC/C=C\C/C=C\C/C=C\C/C=C\CCCCC` (stereo not drawn) [DAraDMA, 1,2-Diarachidonyloxy-(N,N-dimethyl)-propyl-3-amine], the pKa in data set [2] is around 5.65.

Consider `CC/C=C\C/C=C\C/C=C\C/C=C\C/C=C\C/C=C\CCCOCC(CN(C)C)OCCC/C=C\C/C=C\C/C=C\C/C=C\C/C=C\C/C=C\CC` (stereo not drawn) [DDocDMA, 1,2-Didocosahexaenyloxy-(N,N-dimethyl)-propyl-3-amine], for which the pKa in data set [2] was around 5.65.

In the case of `CCCCCCCC/C=C/CCCCCCCC1(CCCCCCC/C=C/CCCCCCCC)OCC(CCN(C)C)O1` (stereo not drawn) [DHep-C2K-DMA], in data set [1] (setting [6]), the “ApoB silencing activity (liver ApoB mRNA)” value is on record as “comparable to DLinDMA with respect to silencing activity”. Also, the pKa in data set [2] is around 6.05.

Turning to `CC/C=C\C/C=C\C/C=C\CCCCCCCCC1(CCCCCCCC/C=C\C/C=C\C/C=C\CC)OCC(CCN(C)C)O1` (stereo not drawn) [DLen-C2K-DMA], in data set [1] (Example 17, FIG. 10, 1:57 SNALP, IV 0.01, 0.033 or 0.1 mg/kg, female Balb/c mice, 48 hours, QuantiGene assay vs GAPDH), the “liver ApoB mRNA knockdown activity” value is reported as “considerable potency in silencing ApoB mRNA expression”.

With `CC/C=C\C/C=C\C/C=C\CCCCCCCCOCC(CN(C)C)OCCCCCCCC/C=C\C/C=C\C/C=C\CC` (stereo not drawn) [DLenDMA, 1,2-dilinolenyloxy-N,N-dimethylaminopropane, reference compound], the liver enzyme levels result in data set [3] was “did not significantly elevate liver enzyme levels”. In addition, the “ApoB silencing activity and its dependence on ApoE” value in data set [4] is “greatest levels of silencing activity when ApoE-containing serum was present”.

As for `CCCCC/C=C\C/C=C\CCCCCCCCC1(CCCCCCCC/C=C\C/C=C\CCCCC)OCC(CN(C)C)O1` (stereo not drawn) [DLin-C1K-DMA, reference compound], in data set [5], the “Initial Encaps. (%)” value is on record as 56%, the “Finished Product Encaps. (%)” value was 98%, the “Finished Product Poly” value is 0.05 and the “Finished Product Z-Avg (nm)” value came out at 84 nm.

Turning to `CCCCC/C=C\C/C=C\CCCCCCCCC1(CCCCCCCC/C=C\C/C=C\CCCCC)OCC(CCN2CCCC(O)C2)O1` (stereo not drawn) [DLin-C2K Pip (30H)], the pKa in data set [2] is around 6.05.

As for `CCCCC/C=C\C/C=C\CCCCCCCCC1(CCCCCCCC/C=C\C/C=C\CCCCC)OCC(CCCN(C)C)O1` (stereo not drawn) [DLin-C3K-DMA], the “ApoB silencing activity and its dependence on ApoE” value in data set [4] is on record as “less dependent on ApoE compared to other formulations tested”.

On to `CCCCCC=CCC=CCCCCCCCCC1(CCCCCCCC/C=C\C/C=C\CCCCC)OCC(CCCCN(C)C)O1` (stereo not drawn) [DLin-C4K-DMA], for which the “ApoB silencing activity and its dependence on ApoE” value in data set [4] is “less dependent on ApoE compared to other formulations tested”.

Regarding `CCCCC/C=C\C/C=C\CCCCCCCCOCC(CN(C)C)OCCCCCCCC/C=C\C/C=C\CCCCC` (stereo not drawn) [DLinDMA, 1,2-dilinoleyloxy-N,N-dimethylaminopropane, reference compound], the ApoB knockdown in data set [1] is given as 25%. Also, in data set [5], the “Initial Encaps. (%)” value was found to be 75%, the “Finished Product Encaps. (%)” value was determined as 98%, the “Finished Product Poly” value stood at 0.08 and the “Finished Product Z-Avg (nm)” value is 74 nm.

In the case of `CC(C)CCCC(C)CCCC(C)CCCC(C)CCC1(CCC(C)CCCC(C)CCCC(C)CCCC(C)C)OCC(CN(C)C)CO1` (stereo not drawn) [DPan-C1K6-DMA], in data set [5], the “Initial Encaps. (%)” value was 71%, the “Finished Product Encaps. (%)” value was found to be 99%, the “Finished Product Poly” value was 0.06 and the “Finished Product Z-Avg (nm)” value is reported as 80 nm. Moreover, the pKa in data set [2] was around 5.5.

For `CC(C)CCCC(C)CCCC(C)CCCC(C)CCC1(CCC(C)CCCC(C)CCCC(C)CCCC(C)C)OCC(CCN(C)C)O1` (stereo not drawn) [DPan-C2K-DMA], in data set [1] (setting [7]), the “ApoB silencing activity (liver ApoB mRNA)” value is on record as “more potent compared to DLinDMA”. In data set [5], the “Initial Encaps. (%)” value was 84%, the “Finished Product Encaps. (%)” value is 100%, the “Finished Product Poly” value is on record as 0.08 and the “Finished Product Z-Avg (nm)” value came out at 76 nm. Further, the pKa in data set [2] was around 5.95.

Turning to `CC(C)CCCC(C)CCCC(C)CCCC(C)CCC1(CCC(C)CCCC(C)CCCC(C)CCCC(C)C)OCC(CCCN(C)C)O1` (stereo not drawn) [DPan-C3K-DMA], the “ApoB silencing activity (liver ApoB mRNA)” value in data set [1] (setting [7]) is “more potent compared to DLinDMA”. In addition, in data set [5], the “Initial Encaps. (%)” value worked out at 86%, the “Finished Product Encaps. (%)” value is on record as 100%, the “Finished Product Poly” value came out at 0.06 and the “Finished Product Z-Avg (nm)” value is listed as 81 nm. In addition, the pKa in data set [2] is around 6.25.

As to `CC/C=C\C/C=C\C/C=C\CCCCCCCCOC(COCCCCCCCC/C=C\C/C=C\CCCCC)CN(C)C` (stereo not drawn) [Linoleyl/Linolenyl DMA], the “liver ApoB mRNA knockdown activity (silencing ApoB expression)” value in data set [1] (Example 14, FIGS. 3-6, 1:57 SNALP with APOB siRNA, IV 0.1 mg/kg (dose response 0.01, 0.03, 0.1 mg/kg), female Balb/c mice, 48 hours) was “greater ApoB silencing activity compared to a SNALP formulation containing DLinDMA”. Further, the “ApoB silencing activity (liver ApoB mRNA)” value in data set [1] (setting [6]) was “more potent silencing activity than DLinDMA”.

In the case of `CCCCC/C=C\C/C=C\CCCCCCCCOCC(COCC(CN(C)C)OCCCCCCCC/C=C\C/C=C\CCCCC)OCCCCCCCC/C=C\C/C=C\CCCCC` (stereo not drawn) [TLinDMA, 1-(2,3-linoleyloxypropoxy)-2-(linoleyloxy)-(N,N-dimethyl)-propyl-3-amine], the “ApoB silencing activity (liver ApoB mRNA)” value in data set [1] (setting [6]) is given as “silencing activity that was comparable to DLinDMA”. In data set [5], the “Initial Encaps. (%)” value turned out to be 70%, the “Finished Product Encaps. (%)” value turned out to be 100%, the “Finished Product Poly” value was determined as 0.07 and the “Finished Product Z-Avg (nm)” value is listed as 126 nm. The pKa in data set [2] was around 5.35.

`CCCCC/C=C\C/C=C\C/C=C\CCCCCC1(CCCCC/C=C\C/C=C\C/C=C\CCCCC)OCC(CCN(C)C)O1` (stereo not drawn) [g-DLen-C2K-DMA]: the KD50 value entry in data set [1] (Example 17, FIG. 10, liver ApoB mRNA knockdown dose response) is “identical KD50 value compared to a SNALP formulation containing C2K”.

`CCCCC/C=C\C/C=C\C/C=C\CCCCCOCC(CN(C)C)OCCCCC/C=C\C/C=C\C/C=C\CCCCC` (stereo not drawn) [γ-DLenDMA, 1,2-Di-γ-linolenyloxy-N,N-dimethylaminopropane]: the liver enzyme levels entry in data set [3] is “did not significantly elevate liver enzyme levels”.
